# Source: ChEMBL document CHEMBL1134496, “An optimized protein kinase C activating diacylglycerol combining high binding affinity (Ki) with reduced lipophilicity (log P)” (J Med Chem, 2001)
# Assay: Partition coefficient (logP)
# Format: physicochemical
# Details: octanol/water
row,logP,Structure (SMILES)
1,2.16,CC(C)CC(=O)OC[C@H](CO)OC(=O)CC(C)C
2,3.8,CC(C)=CC(=O)O[C@@H](CO)COC(=O)C=C(C(C)C)C(C)C
3,3.89,CC(C)CC(=O)O[C@@H](CO)COC(=O)C=C(C(C)C)C(C)C
4,7,CCCCCCCC/C=C/CCCCCCCC(=O)OC[C@H](CO)OC(C)=O
5,2.07,CC(C)=CC(=O)OC[C@H](CO)OC(=O)CC(C)C
6,3.88,CC(C)=CC(=O)O[C@@H](CO)COC(=O)CC(C(C)C)C(C)C
7,5.79,CC(C)C(CC(=O)OC[C@H](CO)OC(=O)CC(C(C)C)C(C)C)C(C)C
8,2.07,CC(C)=CC(=O)O[C@@H](CO)COC(=O)CC(C)C
9,5.3,CCCCCCCC(=O)OC[C@H](CO)OC(=O)CCCCCCC
10,1.99,CC(C)=CC(=O)OC[C@H](CO)OC(=O)C=C(C)C
11,3.89,CC(C)CC(=O)OC[C@H](CO)OC(=O)C=C(C(C)C)C(C)C
12,5.71,CC(C)C(=CC(=O)OC[C@H](CO)OC(=O)CC(C(C)C)C(C)C)C(C)C
13,3.97,CC(C)CC(=O)OC[C@H](CO)OC(=O)CC(C(C)C)C(C)C
14,3.97,CC(C)CC(=O)O[C@@H](CO)COC(=O)CC(C(C)C)C(C)C
15,5.71,CC(C)C(=CC(=O)O[C@@H](CO)COC(=O)CC(C(C)C)C(C)C)C(C)C
16,3.8,CC(C)=CC(=O)OC[C@H](CO)OC(=O)C=C(C(C)C)C(C)C
17,5.62,CC(C)C(=CC(=O)OC[C@H](CO)OC(=O)C=C(C(C)C)C(C)C)C(C)C
18,3.88,CC(C)=CC(=O)OC[C@H](CO)OC(=O)CC(C(C)C)C(C)C

row,Structure (SMILES),logP
1,CCCC(=O)O[C@@H]1[C@@H](C)[C@@]2(O)[C@@H](C=C(CO)C[C@]3(O)C(=O)C(C)=C[C@@H]23)[C@@H]2C(C)(C)[C@]12OC(=O)CCC,3.4
2,CC(=O)O[C@@]12C[C@@H](C)[C@@]3(O)[C@@H](C=C(CO)C[C@]4(O)C(=O)C(C)=C[C@@H]34)[C@@H]1C2(C)C [PROSTRATIN],1.9
